Results on one molecule are retold here after EP4473972A1, “COMBINATIONS COMPRISING AN ATR INHIBITOR WITH SYNERGISTIC EFFECT AGAINST GLIOMAS” (Eberhard-Karls-Universität Tübingen, priority 2023, dated 2024).

For data set [1], the system named is SMA560 glioma cells. The experiment in a line: Syngeneic glioma mouse model (survival). The format is in vivo, VM/Dk mice. Conditions: 50 mg/kg bodyweight via oral gavage, five days on, two days treatment holiday; survival = time until the onset of neurological symptoms; vehicle control 14 days. The text has this: All animal experiments were approved by the regional council Tübingen and conducted in accordance with animal law. Animals used in this study are kept and bred in the animal facility of the institute. They are regularly analyzed for infectious diseases. The inventors injected 5000 SMA560 glioma cells into the right striatum of VM/Dk mice (male and female). On day 5 post surgery, they randomized mice into treatment and control arm. The inventors administered AZD6738 (celasertib, Selleckchem, Houston, TX, US) at 50 mg/kg bodyweight or vehicle control via oral gavage for five days followed by two days of treatment holiday. Animals were closely monitored as shown in the scoring sheets. The endpoint of the experiment was according to the animal law "the time until the onset of neurological symptoms", in the text designated as "survival".

For data set [2] the following is noted: after continuous dosing; cited from earlier work.
Data set [3] deals with LN229 cells. As to the kind of experiment: RNA-Sequencing (RNAseq). The format is cell-based, human. As to the method:
(§1) For this, the inventors seeded the cells on day one and treated them on the next day with IC50 concentrations of AZD6738 for up to 72 h. They extracted the RNA using the Qiagen RNeasy Mini kit (Qiagen, Venlo, NL) according to manufacturer's protocol. For RNA sequencing, the inventors enriched the mRNA fraction using polyA capture from 200 ng of total RNA using the NEBNext Poly(A) mRNA Magnetic Isolation Module (NEB). They used the NEB Next Ultra II Directional RNA Library Prep Kit for Illumina (NEB) to prepare mRNA libraries according to manufacturer's instructions. The libraries were sequenced as paired-end 50 bp reads on an Illumina NovaSeq6000 (Illumina) with a sequencing depth of approximately 25 million clusters per sample. The inventors performed RNA raw data QC and processing using megSAP (version 0.2-135-gd002274) combined with ngs-bits package (version 2019_11-42-gflb98e63). To align the reads to the GRCh38 they used STAR v2.7.3a and alignment quality was analyzed using ngs-bits. Normalized read counts for all genes were obtained using Subread (v2.0.0) and edgeR (v3.26.6). The inventors used the R package "DESeq2" for further analyses. They defined differentially expressed genes (DEGs) as log2 fold-change (LFC) above or below |1| and p-adjusted < 0.01 as defined by Wald statistics. The inventors analyzed the resulting hits for KEGG pathway association using gProfiler. […] They re-aligned significant LRT genes with DEG results and analyzed them with gProfiler.

In data set [4] the test system is LNZ308 cells. The experiment in a line: RNA-Sequencing (RNAseq). The format is cell-based, human. On the procedure: as §1
The test system of data set [5] is LN229 cells. The experiment in a line: Cell cycle analysis (propidium iodide flow cytometry). The format is cell-based, human. Conditions: LN229, 72 h. On the procedure: (§2) The inventors seeded the cells on day one and treated them on the next day. After 72 h, they detached the cells and stained them with propidium iodide solution (50 µg/mL propidium iodide (Thermo Fisher Scientific, Waltham, MA, US), 0.2% Triton X-100 (Roth, Karlsruhe, Germany), 100 µg RNase (Thermo Fisher Scientific, Waltham, MA, US), 1 g/L glucose in PBS (phosphate buffered saline) (Gibco, Carlsbad, CA, US). Flow cytometry was done using a MACSQuant Analyzer 10 (Miltenyi Biotec, Bergisch Gladbach, Germany). The inventors analyzed the acquired data with the FlowJo software (Beckton, Dickinson & Company, Franklin Lakes, NJ, US).

For data set [6], the system named is LNZ308 cells. The data set is described as above. Format: cell-based, human. The note with it: LNZ308, 72 h. As to the method: as §2
Data set [7] deals with patient-derived glioblastoma microtumor models (PDM). The experiment in a line: Patient derived microtumors (PDM) viability, RealTime-Glo MT Cell Viability Assay. The note with it: patient-derived microtumors (PDMs), 72 h. The format is cell-based. On the procedure:
PDMs were extracted from surgically resected, residual glioblastoma tissue as is known to the skilled person. The inventors treated the PDMs with indicated drug concentrations for 72 h and determined cell viability using RealTime-Glo MT Cell Viability Assay (Promega, Madison, Wl, US). Luminescence assay signal was measured using a multimode microplate reader (Tecan, Männedorf, Switzerland). Obtained luminescence units were background corrected and plotted as dose response curves using GraphPad Prism 9 software. The use of residual tissue after tumor resections was approved by the ethical board of the University Hospital Tübingen.

In data set [1], `C[C@@H]1COCCN1c1cc(C2([S@](C)(=N)=O)CC2)nc(-c2cc[nH]c3nccc2-3)n1` [AZD6738, ceralasertib] registered a median survival of 21 days. Moreover, the adverse events result in data set [2] is recorded as “bone marrow suppression”. Moreover, the “PI3K-Akt signaling (KEGG pathway)” value in data set [3] is given as “downregulated”; in data set [4], “upregulated”. Besides, the “p53 signaling (KEGG pathway)” value in data set [3] is reported as “strongly upregulated”. The cell cycle alterations result is on record as “accumulation in S phase” in data set [5] and “accumulation of LNZ308 cells in G2-M phase” in data set [6]. The cell viability entry in data set [7] is recorded as “dose-dependent reduction”.
